Series [1] in a line: HPLC quantitation of compound and metabolite concentration in rabbit serum and liver. In kind it is in vivo, female New Zealand White rabbits. The following applies: for concentration at 168 h: po. On the procedure:
Five independent experiments were performed in the following manner. […] Female New Zealand White rabbits (Hazelton, ~2.0-2.3 kg) were fed 0.2% cholesterol enriched rabbit chow (Purina #5322) with or without 0.4% MDL compound (except, MDL 108,804 at 0.26% and MDL 103,491 repeated at 0.6%). The MDL compounds were solubilized in 100% ethanol. MDL 108,208 was not soluble in 100% ethanol, but it was soluble in diethyl ether:ethanol (3:2 by volume). The chow was sprayed with the MDL mixtures and allowed to dry overnight in a chemical fume hood. Control chow was sprayed with ethanol. Rabbits were fed 100 grams food per day for 7 days (0.6% MDL 103,491 were fed for 14 days); water was available ad libitum. On day 7, rabbits (fasted overnight) were bled (~2 mL) from marginal ear vein; 0.6% MDL 103,491 treated rabbits were tested on day 14. They were euthanized by carbon dioxide overdose. The total body and liver weights were recorded in grams. Food consumption was recorded as grams.cndot.day^-1 .cndot.rabbit^-1. Aliquots of fresh serum were used for clinical chemistries, lipoprotein cholesterol determination, thiobarbituric acid reactive substances (TBARS) and compound and metabolite concentrations in serum. Livers (~5 gram aliquots) were frozen at -20° C. for compound and metabolite concentration determination at a later time.
Serum and liver concentrations of parent compounds and the metabolites, bisphenol and diphenoquinone, were determined by reverse phase HPLC using a Waters 990 Powerline system. Livers (1 gram) were homogenized with 5.0 mL PBS, pH 7.4, using a Polytron tissue homogenizer at setting 5 for 20-30 seconds. Serum or liver homogenates were extracted as follows: 100 μL of either serum or homogenate were added to 2.0 mL diethyl ether:ethanol (3:1) while vortexing the tube. The sample tubes were capped and centrifuged for 10 min at 5° C. at 3500 rpm in a Beckman GPKR centrifuge with a GH 3.7 rotor. The supernatants were transferred to clean tubes and dried under N2. Samples were reconstituted with 200 μL of acetonitrile:hexane:0.1M ammonium acetate (90:6.5:3.5, by vol.). Then, 100 μL were injected onto a Waters Deltapak C18-300 Å column, and eluted with an 83% acetonitrile:17% water mobile phase at a flow rate of 1.5 mL/min. Absrobances at the wavelengths of 240, 254, and 420 nm were recorded. Compound concentrations were calculated from known quantities of authentic parent compounds after correction for recovery; the range of recovery from spiked samples was 40 to 100%. The lowest detectable limit for this class of compounds was ~0.5 μg/mL. Concentrations were calculated as μg/mL of serum and μg/g of liver.

In a further series the test system is VCAM-1. The series can be described thus: Cell surface ELISA for VCAM-1 in human aortic smooth muscle cells (HASMC), interleukin-4 induced. In kind it is cell-based. The conditions noted are these: 50 μm; for VCAM-1 (Avg.) % inh.: average of HSMC-1 to HSMC-3; for HSMC-1 % inh. of VCAM-1: experiment HSMC-1, interleukin-4, about 20 hr; for HSMC-2 % inh. of VCAM-1: experiment HSMC-2, interleukin-4, about 20 hr; for HSMC-3 % inh. of VCAM-1: experiment HSMC-3, interleukin-4, about 20 hr. How it is done: Cell Surface ELISA for VCAM-1/ICAM-1
Proliferating human umbilical vein endothelial cells (HUVEC) or human aortic smooth muscle cells (HASMC) from Clonetics (San Diego, Calif.) were plated onto 96-well plates in 100 μL medium per well at 20,000 cells per cm^2. The cultures were maintained in growth medium (EGM or SMGM2, Clonetics, San Diego, Calif.) for two days prior to addition of cytokines or drugs. Cytokines plus or minus compounds were added for 20 to 24 hours prior to analysis for adhesion molecule levels. Tumor necrosis factor (Genzyme, Cambridge, Mass.) was added to cultures at 500-1000 units/mL. Interleukin-4 (GIBCO-BRL, Gaithersburg, Md.) was added to cultures at 100-200 pg/mL. (Additions were made by transferring 100 [μL of cytokines plus compounds serially diluted on a separate 96-well plate into the plates containing cells. The medium on the cultures was not exchanged prior to addition of effectors). The culture medium was removed, and the monolayers were washed twice with Hanks buffered saline solution (HBSS) at room temperature. The primary antibody (anti-human VCAM-1 from Upstate Biotechnology, Inc., Lake Placid, N.Y. or anti-human ICAM-1 from Immunotech, Inc., Westbrook, Me.) was added to each well (1 μg/mL in HBSS plus 5% newborn calf serum, GIBCO-BRL, Gaithersburg, Md.) and incubated at 37° C. for 1 hr. The wells were washed twice with HBSS, then 100 μL of a 1/1000 dilution of goat anti-mouse IgG conjugated to horse radish peroxidase (BioRad, Hercules, Calif.) in HBSS plus 5% newborn calf serum was added to each well and incubated for 1 hr at 37° C. The wells were washed three times with HBSS, then 100 μL of TMB substrate (BioRad, Hercules, Calif.) was added to each well. The reaction was stopped after blue color developed by addition of 50 μL of 1N H2 SO4. Absorbance is measured at 450 nm with a plate reader. IC50 values were determined from curves of absorbance values obtained from serial dilutions of compounds (dissolved in dimethyl sulfoxide).
The IC50 value is defined as the drug concentration that inhibits the cytokine-induced adhesion molecule expression by 50%. Maximal values for adhesion molecule expression in cytokine-induced cultures was […] the basal level of adhesion molecule expression (minus cytokines) in the cultures to determine the level of induction. […] Each drug concentration was tested in quadruplicate wells. Single point tests of compounds at 50 μM were assayed as described for IC50 determinations, except that the data represent the level of inhibition without correction for basal expression. (Basal adhesion molecule expression was 10-20% of the total induced expression). Table 1 summarizes the ability of various compounds of this invention to inhibit VCAM-1 using human aortic smooth muscle cells (HASMC). In these experiments, the cells were coincubated with interleukin-4 and the compounds listed about 20 hr before assaying cell surface VCAM-1 levels. Each column represents a separate experiment.

Where [2] appears, read: rabbit liver, diet 0.4%, 7 days.
Setting [3] is: rabbit serum, diet 0.4%, 7 days.
The mark [4] stands for this setting: rabbit liver, diet 0.4%, 7 days, read-out: Liver Parent = parent compound concentration.
[5] abbreviates: rabbit serum, diet 0.4%, 7 days, read-out: Serum Parent = parent compound concentration.

Like-named read-outs stand apart in the source and are kept apart here.

On to `CC(=O)Oc1ccc(OC[Si](C)(C)c2ccccc2)cc1C(C)(C)C` [MDL 105,443, 2-t-Butyl-4-[(dimethylphenylsilyl)methyloxy]phenol acetic acid ester], for which the “Liver Parent = parent compound concentration” value in series [1] (setting [2]) is 0 µg/g. In addition, the “Serum Parent = parent compound concentration” value in series [1] (setting [3]) turned out to be 0 µg/mL. Further, in the series on VCAM-1, the “VCAM-1 (Avg.) % inh.” value is recorded as 25.8%, the “HSMC-1 % inh. of VCAM-1” value amounted to 11.4%, the “HSMC-2 % inh. of VCAM-1” value turned out to be 44.0% and the “HSMC-3 % inh. of VCAM-1” value stood at 22.0%.

Take `CC(=O)Oc1c(C(C)(C)C)cc(OC[Si](C)(C)c2ccccc2)cc1C(C)(C)C` [MDL 103,377, 2,6-Di-t-butyl-4-[(dimethylphenylsilyl)methyloxy]phenol acetic acid ester]: in the series with VCAM-1, the “VCAM-1 (Avg.) % inh.” value is 45.5%, the “HSMC-2 % inh. of VCAM-1” value was found to be 45.0% and the “HSMC-3 % inh. of VCAM-1” value amounted to 46.0%.

Regarding `CC(C)(C)c1cc(OC[Si](C)(C)c2ccc(C(F)(F)F)cc2)cc(C(C)(C)C)c1O` [MDL 105,975, 2,6-Di-t-butyl-4-[(dimethyl-4-trifluoromethylphenylsilyl)methyloxy]phenol], in series [1] (setting [4]), the concentration at 168 h is 54600 ng/g. Besides, the concentration at 168 h in series [1] (setting [5]) was found to be 13800 ng/mL. Also, in the series on VCAM-1, the “VCAM-1 (Avg.) % inh.” value was found to be 19.8%, the “HSMC-2 % inh. of VCAM-1” value turned out to be 20.0% and the “HSMC-3 % inh. of VCAM-1” value turned out to be 51.0%.

Consider `CC(C)(C)c1cc(OC[Si](C)(c2ccccc2)c2ccccc2)cc(C(C)(C)C)c1O` [MDL 104,599, 2,6-Di-t-butyl-4-[(diphenylmethylsilyl)methloxy]phenol], for which the concentration at 168 h in series [1] (setting [4]) turned out to be 47200 ng/g. In series [1] (setting [5]), the concentration at 168 h is 14800 ng/mL. Moreover, in the series on VCAM-1, the “VCAM-1 (Avg.) % inh.” value was 45.7%, the “HSMC-1 % inh. of VCAM-1” value is 50.1%, the “HSMC-2 % inh. of VCAM-1” value worked out at 38.0% and the “HSMC-3 % inh. of VCAM-1” value is reported as 49.0%.

As to `COc1ccc([Si](C)(C)COc2ccc(O)c(C(C)(C)C)c2)cc1` [MDL 106,834, 2-t-Butyl-4-[(dimethyl-p-methoxylphenylsilyl)methyloxy]phenol], the values for the concentration at 168 h in series [1] (setting [4]) and in series [1] (setting [5]) were 9100 ng/g and 2900 ng/mL, respectively.

Regarding `CC(C)(C)c1cc(SC[Si](C)(C)c2ccccc2)cc(C(C)(C)C)c1OC(=O)CCC(=O)O` [MDL 103,141, 2,6-Di-t-butyl-4-[(dimethylphenylsilyl)methylthio]phenol sucinic acid ester], in the series with VCAM-1, the “VCAM-1 (Avg.) % inh.” value came out at 31.2%, the “HSMC-1 % inh. of VCAM-1” value is given as 13.7%, the “HSMC-2 % inh. of VCAM-1” value is listed as 47.0% and the “HSMC-3 % inh. of VCAM-1” value was 33.0%.

As for `Cc1cc(OC[Si](C)(C)c2ccccc2)c(C)c(C)c1O` [MDL 105,314, 2,3,6-Trimethyl-4-[(dimethylphenylsdilyl)methloxy]phenol], in the series with VCAM-1, the “VCAM-1 (Avg.) % inh.” value turned out to be 28.2%, the “HSMC-1 % inh. of VCAM-1” value amounted to 8.7%, the “HSMC-2 % inh. of VCAM-1” value amounted to 38.0% and the “HSMC-3 % inh. of VCAM-1” value is listed as 38.0%.

For `CC(C)(C)c1cc(OC[Si](C)(C)c2ccccc2)ccc1O` [MDL 103,491, 2-t-Butyl-4-[(dimethylphenylsilyl)methyloxy]phenol], the “Liver Parent = parent compound concentration” value in series [1] (setting [2]) was 0 µg/g. Moreover, the “Liver Parent = parent compound concentration” value in series [1] (rabbit liver, diet 0.6%, 14 days) is 0 µg/g. The “Serum Parent = parent compound concentration” value in series [1] (setting [3]) amounted to 0 µg/mL. Besides, the “Serum Parent = parent compound concentration” value in series [1] (rabbit serum, diet 0.6%, 14 days) turned out to be 0 µg/mL. Also, in the series with VCAM-1, the “VCAM-1 (Avg.) % inh.” value was 53.0%, the “HSMC-2 % inh. of VCAM-1” value is on record as 57.0% and the “HSMC-3 % inh. of VCAM-1” value is 49.0%.

On to `CC(C)(C)c1cc(OC[Si](C)(C)c2ccccc2)c(C(C)(C)C)cc1O` [MDL 104,962, 2,5-Di-t-butyl-4-[(dimethylphenylsilyl)methyloxy]phenol], for which the figures for the concentration at 168 h in series [1] (setting [4]) and in series [1] (setting [5]) were 3600 ng/g and 3800 ng/mL, respectively.

For `CC(C)(C)c1cc(OC[Si](C)(C)c2ccccc2)cc(C(C)(C)C)c1OC(=O)CCC(=O)O` [MDL 103,076, 2,6-Di-t-butyl-4-[(dimethylphenylsilyl)methyloxy]phenol succinic acid ester], in the series on VCAM-1, the “VCAM-1 (Avg.) % inh.” value worked out at 43.9%, the “HSMC-1 % inh. of VCAM-1” value was 30.6%, the “HSMC-2 % inh. of VCAM-1” value was 55.0% and the “HSMC-3 % inh. of VCAM-1” value is listed as 46.0%.

As to `CN(C)c1ccc([Si](C)(C)COc2cc(C(C)(C)C)c(O)c(C(C)(C)C)c2)cc1` [MDL 104,556, 2,6-Di-t-butyl-4-[(4-N,N-dimethylaminophenyldimethylsilyl)methyloxy]phenol], the concentration at 168 h in series [1] (setting [4]) is 7900 ng/g. Moreover, the concentration at 168 h in series [1] (setting [5]) amounted to 4900 ng/mL. In the series with VCAM-1, the “VCAM-1 (Avg.) % inh.” value was 56.7%, the “HSMC-1 % inh. of VCAM-1” value was found to be 54.1%, the “HSMC-2 % inh. of VCAM-1” value came to 58.0% and the “HSMC-3 % inh. of VCAM-1” value was found to be 58.0%.

(Values after patent US5608095A, “Alkyl-4-silyl-phenols and esters thereof as antiatherosclerotic agents” (Hoechst Marion Roussel, Inc., priority 1996, dated 1997).)
